Experimental data from patent publication US9334231B2, “Photoreactive synthetic regulator of protein function and methods of use thereof” (The Regents of the University of California, priority 2008, dated 2016).
Counter-ions that a name gives are not always drawn. One block for each compound: values may come before it.

What was measured:
Kν channels = assay: Stated characteristics of exemplary synthetic regulators (channel block)
[1] = test system: Shaker K channel, Kν2.1, Kν3.1, Kν4.2, hippocampal Kν; assay: QAQ photoswitching of voltage gated K channels (QAQ in the pipette); format: cell-based
Procedure: (§1) Experiments were conducted to test the effect of QAQ on various channels.
(§2) Purple light was used in all cases to relieve the block. FIG. 6 depicts a bar graph showing the quantification of photoswitching on individual channels when having 100 μM QAQ in the pipette.

[2] = test system: native Na channels expressed in NG108-15 cells (Naν); assay: QAQ photoswitching of native Na channels in NG108-15 cells; format: cell-based
Procedure: as §1, §2

[3] = test system: L type and N type Ca channels (L-type Caν, Caν2.2); assay: QAQ photoswitching of Ca channels; format: cell-based
Procedure: as §1, §2

neurons = assay: Neuron firing under current clamp with QAQ; format: cell-based; settings: progressively greater current injected
Description: The effect of QAQ on neurons was investigated. Neuron firing was examined under current clamp, by injecting progressively greater current into the cell, under 2 different wavelengths of light. […] This is because block of Na channels dominates: when Na channels are blocked, the initial phase of the AP is blocked and neurons are silent. Again, QAQ acts like lidocaine in neurons, silencing cells under green light or in the dark.

Shaker channel = target: T1, Shaker channel (Drosophila melanogaster, UniProt P08510); assay: QAQ membrane permeance: patch pipette versus external application, HEK cells expressing Shaker channel; format: cell-based
T1 construct: expressed in transfected cells; host or cells: HEK cells
Description: The K current was observed upon a depolarization to +40 mV under purple 380 nm light.

P2X7R [4] = target: T2, P2X7R (Homo sapiens, UniProt Q99572); assay: Loading of QAQ through P2X7R in HEK cells co-expressing Shaker channel; format: cell-based
T2 construct: expressed in transfected cells; host or cells: HEK cells, co-expressed with Shaker channel
T2 sequence (Q99572 1-595): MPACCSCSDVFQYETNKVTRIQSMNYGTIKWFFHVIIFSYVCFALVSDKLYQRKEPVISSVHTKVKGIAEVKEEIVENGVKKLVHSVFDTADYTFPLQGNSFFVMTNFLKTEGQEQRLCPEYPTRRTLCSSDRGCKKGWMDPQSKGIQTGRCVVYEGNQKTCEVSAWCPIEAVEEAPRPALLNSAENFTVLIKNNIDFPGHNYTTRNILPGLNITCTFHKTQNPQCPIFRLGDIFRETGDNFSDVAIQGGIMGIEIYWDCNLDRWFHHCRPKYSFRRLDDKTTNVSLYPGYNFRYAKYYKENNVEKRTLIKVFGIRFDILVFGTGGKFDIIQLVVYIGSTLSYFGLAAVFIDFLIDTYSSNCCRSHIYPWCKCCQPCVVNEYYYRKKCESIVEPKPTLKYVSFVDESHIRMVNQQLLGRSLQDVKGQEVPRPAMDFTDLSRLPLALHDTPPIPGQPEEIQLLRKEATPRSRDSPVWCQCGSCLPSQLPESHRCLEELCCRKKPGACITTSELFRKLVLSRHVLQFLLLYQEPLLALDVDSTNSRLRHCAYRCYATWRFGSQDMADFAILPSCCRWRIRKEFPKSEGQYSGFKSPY
Description: (§3) Advantage was taken of the biophysical properties of certain ion channels. TRPV1 channel and the ATP gated P2X7 receptor can open a wide pore upon prolonged agonist exposure. This pore becomes then permeable to large organic cations like the local anesthetic QX314. It was investigated whether QAQ could be loaded into cells expressing either one of these two channels (P2X7R or TRPV1). If so, specific cells could be targeted with QAQ, and then excitability could be controlled with light. This concept is depicted schematically in FIG. 8.
(§4) It was first determined whether P2X7R expressed in HEK cells could be an entry route for QAQ. P2X7R was co-expressed together with Shaker channel.

TRPV1 = target: T3, TRPV1 (Homo sapiens, UniProt Q8NER1); assay: Loading of QAQ through TRPV1 in cells co-expressing Shaker channel; format: cell-based
T3 construct: expressed in transfected cells; the context is HEK cells
Description: as §3, §4

P2X7R [5] = target: T2, P2X7R; assay: Loading of QAQ into hippocampal neurons transfected with P2X7R; format: cell-based
Description: (§5) Hippocampal neurons were transfected with P2X7R. […] In 1 of 13 cells tested, QAQ entered a cell which was not heterologously expressing P2X7R, possibly because this cell was expressing endogenous P2X7 receptors. It was then asked whether QAQ could enter cells naturally expressing either of these channels and looked at sensory neurons. Sensory neurons are activated by sensory input and project towards the central nervous system. Sensory neurons of the trigeminal ganglia naturally express TRPV1 channels. QAQ was applied together with capsaicin on these sensory neurons in in vitro culture.

[6] = test system: native K channels of sensory neurons naturally expressing TRPV1; assay: QAQ with capsaicin on sensory neurons of the trigeminal ganglia in culture; format: cell-based; settings: QAQ applied together with capsaicin
Description: as §5

[7] = test system: capsaicin-evoked nocifensive behaviors; assay: Capsaicin-evoked nocifensive behaviors after hindpaw injection; format: in vivo, mouse; settings: co-injection with capsaicin into hindpaw, 10 min, versus capsaicin alone
Procedure: It was shown (Example 3) that QAQ blocks capsaicin-evoked sensory neuron activation in vitro, in a light-dependent manner. It was then tested whether QAQ can block nocifensive responses in vivo, and whether this action can be regulated by light. This experiment consisted of 2 parts: (1) it was tested whether QAQ acts as an analgesic, in the absence of light. […] Injection of capsaicin into the mouse hindpaw elicits a 5-10 min bout of licking and flinching; such responses are blocked by co-application of lidocaine, morphine, and other analgesics (Binshtock et al., 2007 Nature 449:607-10). Because analgesics are molecules that alleviate pain, evaluating the analgesic properties of a new molecule requires induction of discomfort in animals. The ability of QAQ to inhibit capsaicin-evoked nocifensive behaviors was tested. Fourteen mice were used for this experiment: to one set of 7 mice, capsaicin alone was applied by injection; to a second set of 7 mice, capsaicin and QAQ were co-injected. The mice were then placed in a transparent Plexiglas chamber and behavior was video recorded for 10 min. After 10 min, mice were euthanized.

[8] = target: T4, Shaker IR channels (Sh-IR) (Drosophila melanogaster, UniProt P08510, DEL6-46); assay: Whole-cell patch clamp of HEK293 cells expressing Shaker IR after AAQ/EtAcAQ/AcAQ treatment; format: cell-based; settings: 500-nm and 380-nm light; for block of steady-state current: after blocker pre-treatment (400 uM in FIG. 2)
T4 construct: expressed in transfected cells; host or cells: HEK293 / HEK293T cells, calcium phosphate transfection

[9] = Isomerization wavelengths of red-shifted regulator; format: physicochemical
Sh-IR = target: T5, Sh-IR (Drosophila melanogaster, UniProt P08510, DEL6-46); assay: AzoQA structure-activity screen: HEK293T cells expressing Sh-IR, applied in dark, washout, whole-cell voltage clamp; format: cell-based; settings: for isomer preference of block: cis (380 nm) versus trans (500 nm)
T5 construct: expressed in transfected cells; host or cells: HEK293 / HEK293T cells, calcium phosphate transfection
Description: Solutions were adjusted to 300-310 mOsm.
These AzoQA's were applied in dark, which favors the trans configuration, at various concentrations to HEK293T cells expressing Sh-IR, followed by washout and whole-cell voltage clamp recording.

[10] = test system: endogenous K+ channels in dissociated hippocampal neurons
[11] = target: T6, Sh-IR internal TEA binding site (Drosophila melanogaster, UniProt P08510, DEL6-46); assay: Inside-out patches from HEK293 cells expressing Sh-IR, dose-response under 380 and 500 nm light; format: cell-based; settings: inside-out patch
T6 construct: expressed in transfected cells; host or cells: HEK293 / HEK293T cells, calcium phosphate transfection

[12] = illumination at 420 nm
[13] = test system: endogenous K+ channels in dissociated hippocampal neurons; settings: preincubation at 300 nM; cited from earlier work
[14] = 100 μM QAQ in the pipette, purple light relieves block

T1 sequence (P08510 whole entry): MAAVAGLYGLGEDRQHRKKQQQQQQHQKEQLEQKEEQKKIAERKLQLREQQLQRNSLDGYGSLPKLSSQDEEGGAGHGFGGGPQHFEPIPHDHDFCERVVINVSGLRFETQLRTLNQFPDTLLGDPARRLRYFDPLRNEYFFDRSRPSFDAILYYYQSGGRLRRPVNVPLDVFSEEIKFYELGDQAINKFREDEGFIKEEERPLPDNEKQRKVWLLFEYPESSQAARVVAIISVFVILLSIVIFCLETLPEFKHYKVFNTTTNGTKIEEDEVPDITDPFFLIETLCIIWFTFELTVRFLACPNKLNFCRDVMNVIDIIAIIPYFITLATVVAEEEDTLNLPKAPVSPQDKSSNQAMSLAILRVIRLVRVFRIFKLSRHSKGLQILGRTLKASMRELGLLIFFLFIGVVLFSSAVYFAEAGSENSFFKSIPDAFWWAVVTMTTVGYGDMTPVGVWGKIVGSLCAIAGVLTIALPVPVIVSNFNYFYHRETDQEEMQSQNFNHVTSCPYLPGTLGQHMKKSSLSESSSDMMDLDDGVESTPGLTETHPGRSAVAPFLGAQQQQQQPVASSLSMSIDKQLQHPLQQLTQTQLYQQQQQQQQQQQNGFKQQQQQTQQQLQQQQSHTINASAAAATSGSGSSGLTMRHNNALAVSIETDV
T4 sequence (P08510 other isoform, or with tags, fused parts or gaps DEL6-46): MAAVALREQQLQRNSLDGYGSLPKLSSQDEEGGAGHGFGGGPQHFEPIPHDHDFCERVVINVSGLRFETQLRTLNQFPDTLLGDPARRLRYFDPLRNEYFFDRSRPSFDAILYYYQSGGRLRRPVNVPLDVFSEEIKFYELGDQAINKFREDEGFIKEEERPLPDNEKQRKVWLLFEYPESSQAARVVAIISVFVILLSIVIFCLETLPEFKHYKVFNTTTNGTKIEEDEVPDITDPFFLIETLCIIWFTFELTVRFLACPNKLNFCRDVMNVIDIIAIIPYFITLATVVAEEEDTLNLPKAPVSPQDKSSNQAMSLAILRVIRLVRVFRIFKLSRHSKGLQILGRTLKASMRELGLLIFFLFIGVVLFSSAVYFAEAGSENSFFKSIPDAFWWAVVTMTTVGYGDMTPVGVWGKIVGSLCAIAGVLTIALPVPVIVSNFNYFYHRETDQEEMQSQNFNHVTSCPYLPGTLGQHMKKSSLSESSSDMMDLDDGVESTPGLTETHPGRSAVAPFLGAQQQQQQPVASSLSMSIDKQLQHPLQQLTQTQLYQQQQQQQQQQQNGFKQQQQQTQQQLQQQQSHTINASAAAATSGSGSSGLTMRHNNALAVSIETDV
T5 sequence (P08510 other isoform, or with tags, fused parts or gaps DEL6-46): as above
T6 sequence (P08510 with tags, fused parts or gaps DEL6-46): as the sequence (P08510 other isoform, or with tags, fused parts or gaps DEL6-46) above
T3 sequence (Q8NER1 whole entry, species assumed): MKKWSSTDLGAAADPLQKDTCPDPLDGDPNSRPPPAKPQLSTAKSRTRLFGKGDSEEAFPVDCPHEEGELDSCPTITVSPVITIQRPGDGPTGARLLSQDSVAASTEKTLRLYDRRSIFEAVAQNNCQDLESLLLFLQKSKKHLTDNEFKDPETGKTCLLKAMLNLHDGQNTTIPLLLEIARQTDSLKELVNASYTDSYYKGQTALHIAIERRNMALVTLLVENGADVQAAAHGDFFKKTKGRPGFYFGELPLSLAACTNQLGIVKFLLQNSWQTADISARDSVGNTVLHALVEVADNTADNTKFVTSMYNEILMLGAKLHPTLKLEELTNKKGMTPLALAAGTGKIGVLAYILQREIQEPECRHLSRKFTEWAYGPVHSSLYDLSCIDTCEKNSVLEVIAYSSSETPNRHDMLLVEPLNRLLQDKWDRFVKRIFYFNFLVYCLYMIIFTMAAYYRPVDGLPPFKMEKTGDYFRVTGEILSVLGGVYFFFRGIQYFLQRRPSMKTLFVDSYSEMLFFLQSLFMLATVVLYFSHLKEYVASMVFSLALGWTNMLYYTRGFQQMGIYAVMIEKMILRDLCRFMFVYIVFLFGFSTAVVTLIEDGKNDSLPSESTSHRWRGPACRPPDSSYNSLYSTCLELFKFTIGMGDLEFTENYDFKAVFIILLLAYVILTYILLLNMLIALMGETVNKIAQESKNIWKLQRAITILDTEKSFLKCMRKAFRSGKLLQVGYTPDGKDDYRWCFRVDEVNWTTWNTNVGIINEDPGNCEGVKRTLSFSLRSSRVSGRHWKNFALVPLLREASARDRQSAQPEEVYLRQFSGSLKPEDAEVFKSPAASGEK

Compound: CC[N+](CC)(CC)CC(=O)Nc1ccc(/N=N/c2ccc(NC(=O)C[N+](CC)(CC)CC)cc2)cc1 [QAQ]
channels blocked / selectivity (Kν channels): able to block Kν, Naν, and Caν channels | external or internal blocker (Kν channels): internal blocker | isomeric form that blocks (Kν channels): trans-blocker | photoregulation of K channels [1]: photoregulate Shaker K channel and also other K channel subtypes such as Kν2, Kν3 Kν4 and native K channels in hippocampal cells | light condition of block [1, 14]: the block occurred in the dark, or under 500 nm light | photosensitization of Na channels [2]: photosensitizes native Na channels expressed in NG108-15 cells | light condition of block [2, 14]: the block occurred in the dark, or under 500 nm light | photosensitization of Ca channels [3]: photosensitize L type and N type Ca channels | light condition of block [3, 14]: the block occurred in the dark, or under 500 nm light | neuron firing under green light (neurons): does at best one action potential (AP), but remains silent | neuron firing under purple light (neurons): fires normally | membrane permeance (Shaker channel): membrane impermeant | photoregulation of K current, applied through the patch pipette (Shaker channel; 100 μM QAQ, +40 mV, 380 nm versus green light): photoregulation of the K channel current was observed | photoregulation of K current, externally applied (Shaker channel; external application): no photoregulation of K current was seen | loading into HEK cells (P2X7R [4]; P2X7R co-expressed with Shaker, ATP coapplied): could be loaded in the HEK cell only if P2X7 channels were expressed and ATP, the agonist for the P2X7 channels, was coapplied | photoswitching of Shaker channels current (P2X7R [4]; application of 5 min with ATP): very good photoswitching | loading into cells (TRPV1; TRPV1 co-expressed with Shaker, capsaicin): could be loaded into cells co-expressing TRPV1 and Shaker channel in the presence of the TRPV1 agonist capsaicin | photoswitching (TRPV1; loaded in the presence of capsaicin): photoswitching could be effected | loading into hippocampal neurons (P2X7R [5]; ATP): could be loaded into cells only when P2X7 receptors were expressed | cells not heterologously expressing P2X7R that QAQ entered (P2X7R [5]; cells tested): 1 of 13 | photoswitching of native K channels [6]: very robust photoswitching of native K channels | number of licks [7]: reduced | time spent paw lifting [7]: reduced

Compound: CC[N+](CC)(CC)CC(=O)Nc1ccc(N=Nc2ccc(NC(C)=O)cc2)cc1.O=C[O-] [AcAQ, 4-acetamido-4′-(2)-triethylammoniumacetamidoazobenzene formate]
block of steady-state current [8]: persistently blocked the steady-state current in a light-dependent fashion | photoswitching after pre-treatment ([8]; extracellular pre-treatment): considerable sustained photoswitching

wavelength of first isomeric form [9]: 472 nm | wavelength of second isomeric form [9]: 550 nm
Compound: CCN(CC)c1ccc(/N=N/c2ccc(NC(=O)C[N+](CC)(CC)CC)cc2)cc1 [DAAQ]
channels blocked / selectivity (Kν channels): able to block Kν channels | external or internal blocker (Kν channels): external blocker | isomeric form that blocks (Kν channels): trans-blocker

Compound: CCCc1ccc(N=Nc2ccc(NC(=O)C[N+](CC)(CC)CC)cc2)cc1.O=C[O-] [PrAQ, 4-propyl-4′-(2)-triethylammoniumacetamidoazobenzene formate]
block of Iss in the cis form (Sh-IR; 40 nM): 50% | block by the trans isomer (Sh-IR; 40 nM, 500 nm): without producing obvious block | isomer preference of block (Sh-IR): preferentially blocks in the cis form

Compound: CC[N+](CC)(CC)CC(=O)Nc1ccc(/N=N/c2ccc(NC(=O)c3ccccc3)cc2)cc1 [BzAQ, 4-benzamido-4′-(2)-triethylammoniumacetamidoazobenzene formate]
channels blocked / selectivity (Kν channels): selective for Kν channels | external or internal blocker (Kν channels): external blocker | isomeric form that blocks (Kν channels): trans-blocker | minimal dose able to block >95% of Iss (Sh-IR; Iss relative to that under 380 nm illumination, extracellular treatment in dark): 25 µM | Iss blocked ([10]; 20 μM BzAQ extracellular, Iss at +30 mV compared at 380 and 500 nm): 57+/−6.6% | action potential firing ([10]; current clamp, cell near threshold, 500 nm light): sufficient to induce action potential firing | effect on cellular membrane potential ([10]; current clamp, switched from cis to trans): significantly depolarize the cellular membrane potential

Compound: C=CC(=O)Nc1ccc(/N=N/c2ccc(NC(=O)C[N+](CC)(CC)CC)cc2)cc1 [AAQ, Acrylamide Azobenzene Quaternary ammonium]
current block after washout with control solution [11]: relieved within several seconds of washout | IC50 ([11]; 380 nm light, n=3-5, read-out: IC50 (cis isomer)): 64 µM | cis isomer content [12]: 50% | photosensitization of endogenous K+ channels [13]: strongly photosensitize endogenous K^+

Compound: CCC(=O)Nc1ccc(N=Nc2ccc(NC(=O)C[N+](CC)(CC)CC)cc2)cc1 [EtAcAQ]
block of steady-state current [8]: persistently blocked the entire steady-state current in a light-dependent fashion

Compound: C=CCCC(=O)Nc1ccc(N=Nc2ccc(NC(=O)C[N+](CC)(CC)CC)cc2)cc1.O=C[O-] [compound 10, 4-(pent-4-en)amido-4′-(2)-triethylammoniumacetamidoazobenzene formate]
isomer preference of block (Sh-IR): essentially equal block in both cis and trans forms
